# Test results as given in patent publication US20230227426A1 (Akebia Therapeutics, Inc., priority 2020, published 2023).
# How the values were obtained:
# Format in all cases: biochemical
# full-length human PHD2 = target: T1, full-length human PHD2 (Homo sapiens, UniProt Q9GZT9); experiment: TR-FRET assay for PHD enzymes, PHD2; conditions: read-out: PHD2 IC5 0
# T1 construct: The PHD2 construct contained amino acids 1 to 426 of PHD2; His tag (N, cleaved yes); TEV protease cleavage site (N, cleaved yes); host or cells: Sf9 insect cells (baculovirus)
# T1 sequence (Q9GZT9 whole entry, the tested form may be a part): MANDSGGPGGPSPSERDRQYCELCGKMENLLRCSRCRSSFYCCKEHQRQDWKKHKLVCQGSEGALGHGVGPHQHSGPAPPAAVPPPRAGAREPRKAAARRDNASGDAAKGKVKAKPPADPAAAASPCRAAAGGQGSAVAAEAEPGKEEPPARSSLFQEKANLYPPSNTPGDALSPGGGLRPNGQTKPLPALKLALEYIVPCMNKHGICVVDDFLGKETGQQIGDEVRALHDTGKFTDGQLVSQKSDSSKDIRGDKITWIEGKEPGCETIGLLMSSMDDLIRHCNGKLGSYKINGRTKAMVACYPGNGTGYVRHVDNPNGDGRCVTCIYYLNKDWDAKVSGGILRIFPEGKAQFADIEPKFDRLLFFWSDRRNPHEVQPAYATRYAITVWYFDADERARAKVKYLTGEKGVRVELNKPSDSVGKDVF
# Method: (§1) The resulting proximity of the donor fluorophore complex, monoclonal antibody anti-6His-Terbium (Tb)-cryptate Gold, bound to the His-tagged VHL protein, EloB, EloC complex (His-VBC) and the acceptor fluorophore, SA-D2 complex, bound to HIF-1α-hydroxyproline results in a fluorescence resonance energy transfer signal that can be detected and quantified
# (§2) For this, 5 μL PHD inhibitor compound was serially diluted with dilution buffer (50 mM HEPES [4-(2-hydroxyethyl)-1-piperazineethanesulfonic acid] pH 7.5, 50 mM sodium chloride [NaCl], 0.01% Tween-20, 0.01% purified bovine serum albumin [BSA]) and mixed with 5 μL PHD enzyme mix prepared as a 4× concentrate in the dilution buffer containing PHD enzyme (60 nM PHD1, 20 nM PHD2, 140 nM PHD3), 40 μM ferrous ammonium sulfate (FAS), 4 mM sodium (Na) ascorbate.
# (§3) The IC50 values (mean, standard deviation, standard error of the mean, geometric mean and 95% confidence interval) were determined using a four-parameter curve-fit using GraphPad Prism 7.0 (GraphPad, La Jolla, Calif., USA) and represent the compound concentration plotted against the calculated ratio of 665 nm and 615 nm.
# full-length human PHD1 = target: T2, full-length human PHD1 (Homo sapiens, UniProt Q96KS0); experiment: TR-FRET assay for PHD enzymes, PHD1
# T2 construct: FLAG (N); purchased Active Motif (Carlsbad, Calif., USA) 81064; host or cells: baculovirus expression system
# T2 sequence (Q96KS0 whole entry): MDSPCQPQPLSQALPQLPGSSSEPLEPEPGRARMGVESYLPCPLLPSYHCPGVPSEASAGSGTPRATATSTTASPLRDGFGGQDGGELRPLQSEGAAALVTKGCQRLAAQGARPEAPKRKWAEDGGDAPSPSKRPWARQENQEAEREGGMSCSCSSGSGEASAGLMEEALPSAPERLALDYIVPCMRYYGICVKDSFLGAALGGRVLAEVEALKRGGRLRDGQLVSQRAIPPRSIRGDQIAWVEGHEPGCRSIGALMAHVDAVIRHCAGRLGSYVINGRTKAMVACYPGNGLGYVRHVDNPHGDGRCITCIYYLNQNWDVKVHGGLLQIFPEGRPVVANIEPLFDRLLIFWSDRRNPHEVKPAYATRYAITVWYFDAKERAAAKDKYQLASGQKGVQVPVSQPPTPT
# Text: as §1
# Recombinant human PHD1 protein (catalog #81064, Lot #24717001) was purchased from Active Motif (Carlsbad, Calif., USA). PHD1 was expressed in a baculovirus expression system as the full-length protein (NCBI accession number NP_542770.2) with an N-terminal FLAG tag (molecular weight 44.9 kDa). Purity (>90%) was assessed by SDS-PAGE.
# as §2, §3
# full-length human PHD3 = target: T3, full-length human PHD3 (Homo sapiens, UniProt Q9H6Z9); experiment: TR-FRET assay for PHD enzymes, PHD3
# T3 construct: 6-His (N); purchased Active Motif (Carlsbad, Calif., USA) 81033; host or cells: E. coli
# T3 sequence (Q9H6Z9 whole entry): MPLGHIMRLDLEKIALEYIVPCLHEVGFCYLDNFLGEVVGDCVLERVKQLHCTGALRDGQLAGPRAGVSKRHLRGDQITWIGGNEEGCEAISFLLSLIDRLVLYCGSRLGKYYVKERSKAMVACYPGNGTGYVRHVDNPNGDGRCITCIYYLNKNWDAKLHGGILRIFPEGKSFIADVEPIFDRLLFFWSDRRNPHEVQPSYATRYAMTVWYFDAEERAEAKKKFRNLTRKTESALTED
# Text: as §1
# Recombinant human PHD3 protein (molecular weight 31.1 kDa) was purchased from Active Motif (Carlsbad, Calif., USA). It was expressed in E. coli as the full-length protein (NCBI accession number NP_071356.1) with an N-terminal 6-His tag (catalog #81033, Lot #24417001).
# as §2, §3
Structure (SMILES),IC50 (full-length human PHD2),IC50 (full-length human PHD1),IC50 (full-length human PHD3)
"Cc1ccc(-c2cnn(-c3ccc(C(=O)OC(C)(C)C)cn3)c2O)cc1 [Compound 1, Tert-butyl 6-(5-hydroxy-4-(p-tolyl)-1H-pyrazol-1-yl)nicotinate]",1000 to 10000 nM,100 to 1000 nM,
"CC(C)(C)OC(=O)c1ccc(-n2ncc(-c3ccc(Br)cc3)c2O)nc1 [Compound 2, Tert-butyl 6-(4-(4-bromophenyl)-5-hydroxy-1H-pyrazol-1-yl)nicotinate]",≥ 10000 nM,100 to 1000 nM,
"O=C(O)c1ccc(-n2ncc(-c3ccc(Br)cc3)c2O)nc1 [Compound 3, 6-(4-(4-Bromophenyl)-5-hydroxy-1H-pyrazol-1-yl) nicotinic acid]",< 100 nM,< 100 nM,100 to 1000 nM
"CC(C)(C)OC(=O)c1ccc(-n2ncc(-c3ccc(Cl)cc3)c2O)nc1 [Compound 4, Tert-butyl 6-(4-(4-chlorophenyl)-5-hydroxy-1H-pyrazol-1-yl)nicotinate]",1000 to 10000 nM,100 to 1000 nM,
"O=C(O)c1ccc(-n2ncc(-c3ccc(Cl)cc3)c2O)nc1 [Compound 5, 6-(4-(4-Chlorophenyl)-5-hydroxy-1H-pyrazol-1-yl)nicotinic acid]",< 100 nM,< 100 nM,100 to 1000 nM
"CC(C)(C)OC(=O)c1ccc(-n2ncc(-c3ccc(F)cc3)c2O)nc1 [Compound 6, Tert-butyl 6-(4-(4-fluorophenyl)-5-hydroxy-1H-pyrazol-1-yl)nicotinate]",1000 to 10000 nM,< 100 nM,
"O=C(O)c1ccc(-n2ncc(-c3ccc(F)cc3)c2O)nc1 [Compound 7, 6-(4-(4-Fluorophenyl)-5-hydroxy-1H-pyrazol-1-yl)nicotinic acid]",< 100 nM,< 100 nM,1000 to 10000 nM
"Cc1cc(C#N)ccc1-c1cnn(-c2ccc(C(=O)OC(C)(C)C)cn2)c1O [Compound 8, Tert-butyl 6-(4-(4-cyano-2-methylphenyl)-5-hydroxy-1H-pyrazol-1-yl)nicotinate]",< 100 nM,< 100 nM,< 100 nM
"Cc1nn(-c2ccc(C(=O)O)cn2)c(O)c1-c1ccc(C#N)cc1 [Compound 9, 6-(4-(4-Cyanophenyl)-5-hydroxy-3-methyl-1H-pyrazol-1-yl)nicotinic acid]",< 100 nM,< 100 nM,< 100 nM
"Cc1nn(-c2ccc(C(=O)OC(C)(C)C)cn2)c(O)c1-c1ccc(C#N)cc1 [Compound 10, Tert-butyl 6-(4-(4-cyanophenyl)-5-hydroxy-3-methyl-1H-pyrazol-1-yl)nicotinate]",< 100 nM,< 100 nM,≥ 10000 nM
"COC(=O)c1ccc(-n2nc(C)c(-c3ccc(C#N)cc3)c2O)nc1 [Compound 11, Methyl 6-(4-(4-cyanophenyl)-5-hydroxy-3-methyl-1H-pyrazol-1-yl)nicotinate]",< 100 nM,< 100 nM,100 to 1000 nM
"N#Cc1cc(F)c(-c2cnn(-c3ccc(C(=O)O)cn3)c2O)cc1F [Compound 12, 6-(4-(4-Cyano-2,5-difluorophenyl)-5-hydroxy-1H-pyrazol-1-yl)nicotinic acid]",< 100 nM,< 100 nM,100 to 1000 nM
"N#Cc1ccc(-c2cnn(-c3ccc(C(=O)O)cn3)c2O)cc1F [Compound 13, 6-(4-(4-cyano-3-fluorophenyl)-5-hydroxy-1H-pyrazol-1-yl)nicotinic acid]",< 100 nM,< 100 nM,< 100 nM
"N#Cc1ccc(-c2cnn(-c3ncc(C(=O)O)cc3F)c2O)cc1 [Compound 14, 6-(4-(4-cyanophenyl)-5-hydroxy-1H-pyrazol-1-yl)-5-fluoronicotinic acid]",1000 to 10000 nM,1000 to 10000 nM,
Cc1nn(-c2ccc(C(=O)O)cn2)c(O)c1-c1ccc(Cl)cc1 [Compound 15],< 100 nM,< 100 nM,
"Cc1cc(-c2cnn(-c3ccc(C(=O)O)cn3)c2O)ccc1O [Compound 16, 6-(5-hydroxy-4-(4-hydroxy-3-methylphenyl)-1H-pyrazol-1-yl)nicotinic acid]",100 to 1000 nM,100 to 1000 nM,1000 to 10000 nM
"Cc1nc(-n2nc(C)c(-c3ccc(C#N)cc3)c2O)ccc1C(=O)O [Compound 19, 6-(4-(4-cyanophenyl)-5-hydroxy-3-methyl-1H-pyrazol-1-yl)-2-methylnicotinic acid]",1000 to 10000 nM,1000 to 10000 nM,

Structure (SMILES),IC50 (full-length human PHD2),IC50 (full-length human PHD1),IC50 (full-length human PHD3)
"Cc1nn(-c2ccc(C(=O)O)cn2)c(O)c1-c1ccc(Cl)cn1 [Compound 20, 6-(4-(5-chloropyridin-2-yl)-5-hydroxy-3-methyl-1H-pyrazol-1-yl)nicotinic acid]",100 to 1000 nM,< 100 nM,
"O=C(O)c1ccc(-n2ncc(-c3ccc(Cl)c(O)c3)c2O)nc1 [Compound 22, 6-(4-(4-chloro-3-hydroxyphenyl)-5-hydroxy-1H-pyrazol-1-yl)nicotinic acid]",< 100 nM,< 100 nM,
"Cc1nn(-c2ccc(C(=O)O)cn2)c(O)c1-c1ccc(C#N)c(F)c1 [Compound 23, 6-(4-(4-cyano-3-fluorophenyl)-5-hydroxy-3-methyl-1H-pyrazol-1-yl)nicotinic acid]",< 100 nM,< 100 nM,
"Cc1nn(-c2ccc(C(=O)O)cn2)c(O)c1-c1ccc(C#N)cc1F [Compound 25, 6-(4-(4-cyano-2-fluorophenyl)-5-hydroxy-3-methyl-1H-pyrazol-1-yl)nicotinic acid]",< 100 nM,< 100 nM,
"Cc1nn(-c2cc(N)c(C(=O)O)cn2)c(O)c1-c1ccc(C#N)cc1 [Compound 27, 4-amino-6-(4-(4-cyanophenyl)-5-hydroxy-3-methyl-1H-pyrazol-1-yl)nicotinic acid]",< 100 nM,< 100 nM,
"Cc1cc(-c2c(C)nn(-c3ccc(C(=O)O)cn3)c2O)ccc1C#N [Compound 29, 6-(4-(4-cyano-3-methylphenyl)-5-hydroxy-3-methyl-1H-pyrazol-1-yl)nicotinic acid]",< 100 nM,< 100 nM,
"N#Cc1ccc(-c2cnn(-c3ccc(C(=O)O)cn3)c2O)c(Cl)c1 [Compound 30, 6-(4-(2-chloro-4-cyanophenyl)-5-hydroxy-1H-pyrazol-1-yl)nicotinic acid]",< 100 nM,< 100 nM,
"Cc1cc(C#N)cc(C)c1-c1cnn(-c2ccc(C(=O)O)cn2)c1O [Compound 31, 6-(4-(4-cyano-2,6-dimethylphenyl)-5-hydroxy-1H-pyrazol-1-yl)nicotinic acid]",100 to 1000 nM,< 100 nM,
"COc1ccc(-c2c(C)nn(-c3ccc(C(=O)O)cn3)c2O)cc1C [Compound 32, 6-(5-hydroxy-4-(4-methoxy-3-methylphenyl)-3-methyl-1H-pyrazol-1-yl)nicotinic acid]",100 to 1000 nM,100 to 1000 nM,
"CCc1cc(C#N)ccc1-c1cnn(-c2ccc(C(=O)O)cn2)c1O [Compound 33, 6-(4-(4-cyano-2-ethylphenyl)-5-hydroxy-1H-pyrazol-1-yl)nicotinic acid]",< 100 nM,< 100 nM,
"Cc1nn(-c2cnc(C(=O)O)cn2)c(O)c1-c1ccc(C#N)cc1 [Compound 34, 5-(4-(4-cyanophenyl)-5-hydroxy-3-methyl-1H-pyrazol-1-yl)pyrazine-2-carboxylic acid]",< 100 nM,< 100 nM,
"N#Cc1ccc(-c2cnn(-c3ccc(C(=O)O)cn3)c2O)c(C(F)(F)F)c1 [Compound 40, 6-(4-(4-cyano-2-(trifluoromethyl)phenyl)-5-hydroxy-1H-pyrazol-1-yl)nicotinic acid]",< 100 nM,< 100 nM,
"Cc1nn(-c2ccc(C(=O)O)cn2)c(O)c1-c1cc[n+]([O-])cc1 [Compound 41, 4-(1-(5-carboxypyridin-2-yl)-5-hydroxy-3-methyl-1H-pyrazol-4-yl)pyridine 1-oxide]",≥ 10000 nM,≥ 10000 nM,
"Cc1nn(-c2ccc(C(=O)O)cn2)c(O)c1-c1ccc(Cl)c(C#N)c1 [Compound 42, 6-(4-(4-chloro-3-cyanophenyl)-5-hydroxy-3-methyl-1H-pyrazol-1-yl)nicotinic acid]",< 100 nM,< 100 nM,
"COc1ccc(-c2cnn(-c3ccc(C(=O)O)cn3)c2O)cn1 [Compound 43, 6-(5-Hydroxy-4-(6-methoxypyridin-3-yl)-1H-pyrazol-1-yl)nicotinic acid]",< 100 nM,< 100 nM,
"Cc1nn(-c2ccc(C(=O)O)cn2)c(O)c1-c1ccc(C#N)c(Cl)c1 [Compound 44, 6-(4-(3-chloro-4-cyanophenyl)-5-hydroxy-3-methyl-1H-pyrazol-1-yl)nicotinic acid]",< 100 nM,< 100 nM,
